{"source": "patent US20240400547A1", "about": "“2,6-PIPERIDINEDIONE COMPOUND AND APPLICATION THEREOF” (MEDSHINE DISCOVERY INC., priority 2021, published 2024)", "key": {"IKZF1": {"target": "T1, IKZF1 (Homo sapiens, UniProt Q13422+Q96SW2)", "T1 construct": "host or cells: MM.1S cells", "T1 sequence (Q13422 whole entry)": "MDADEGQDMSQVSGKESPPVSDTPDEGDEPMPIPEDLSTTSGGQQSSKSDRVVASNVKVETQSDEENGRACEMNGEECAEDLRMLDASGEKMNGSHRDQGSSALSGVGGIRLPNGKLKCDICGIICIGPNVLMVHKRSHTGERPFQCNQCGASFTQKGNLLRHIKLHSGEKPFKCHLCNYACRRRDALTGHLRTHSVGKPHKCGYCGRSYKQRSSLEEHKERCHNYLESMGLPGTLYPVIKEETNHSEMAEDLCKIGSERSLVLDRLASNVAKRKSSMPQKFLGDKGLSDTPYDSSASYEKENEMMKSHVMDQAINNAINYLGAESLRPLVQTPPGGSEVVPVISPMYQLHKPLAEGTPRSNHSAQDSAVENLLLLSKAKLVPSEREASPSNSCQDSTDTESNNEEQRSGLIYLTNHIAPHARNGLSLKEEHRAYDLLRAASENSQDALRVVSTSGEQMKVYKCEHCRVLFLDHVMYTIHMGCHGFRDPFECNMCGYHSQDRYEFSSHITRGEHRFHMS", "T1 sequence (Q96SW2 whole entry)": "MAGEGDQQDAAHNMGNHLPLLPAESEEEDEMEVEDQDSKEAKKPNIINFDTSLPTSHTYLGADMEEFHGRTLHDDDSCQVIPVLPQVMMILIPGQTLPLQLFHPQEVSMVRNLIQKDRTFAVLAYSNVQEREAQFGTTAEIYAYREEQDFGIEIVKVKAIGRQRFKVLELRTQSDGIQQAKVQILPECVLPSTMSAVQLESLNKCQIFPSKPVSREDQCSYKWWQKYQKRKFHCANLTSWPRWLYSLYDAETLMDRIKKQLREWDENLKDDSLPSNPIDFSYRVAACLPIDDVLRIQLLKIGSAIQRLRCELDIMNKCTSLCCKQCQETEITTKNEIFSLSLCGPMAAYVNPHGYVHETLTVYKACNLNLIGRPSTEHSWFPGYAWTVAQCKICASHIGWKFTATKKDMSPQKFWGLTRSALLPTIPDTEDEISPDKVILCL", "T1 sequence (Q16531 whole entry partner)": "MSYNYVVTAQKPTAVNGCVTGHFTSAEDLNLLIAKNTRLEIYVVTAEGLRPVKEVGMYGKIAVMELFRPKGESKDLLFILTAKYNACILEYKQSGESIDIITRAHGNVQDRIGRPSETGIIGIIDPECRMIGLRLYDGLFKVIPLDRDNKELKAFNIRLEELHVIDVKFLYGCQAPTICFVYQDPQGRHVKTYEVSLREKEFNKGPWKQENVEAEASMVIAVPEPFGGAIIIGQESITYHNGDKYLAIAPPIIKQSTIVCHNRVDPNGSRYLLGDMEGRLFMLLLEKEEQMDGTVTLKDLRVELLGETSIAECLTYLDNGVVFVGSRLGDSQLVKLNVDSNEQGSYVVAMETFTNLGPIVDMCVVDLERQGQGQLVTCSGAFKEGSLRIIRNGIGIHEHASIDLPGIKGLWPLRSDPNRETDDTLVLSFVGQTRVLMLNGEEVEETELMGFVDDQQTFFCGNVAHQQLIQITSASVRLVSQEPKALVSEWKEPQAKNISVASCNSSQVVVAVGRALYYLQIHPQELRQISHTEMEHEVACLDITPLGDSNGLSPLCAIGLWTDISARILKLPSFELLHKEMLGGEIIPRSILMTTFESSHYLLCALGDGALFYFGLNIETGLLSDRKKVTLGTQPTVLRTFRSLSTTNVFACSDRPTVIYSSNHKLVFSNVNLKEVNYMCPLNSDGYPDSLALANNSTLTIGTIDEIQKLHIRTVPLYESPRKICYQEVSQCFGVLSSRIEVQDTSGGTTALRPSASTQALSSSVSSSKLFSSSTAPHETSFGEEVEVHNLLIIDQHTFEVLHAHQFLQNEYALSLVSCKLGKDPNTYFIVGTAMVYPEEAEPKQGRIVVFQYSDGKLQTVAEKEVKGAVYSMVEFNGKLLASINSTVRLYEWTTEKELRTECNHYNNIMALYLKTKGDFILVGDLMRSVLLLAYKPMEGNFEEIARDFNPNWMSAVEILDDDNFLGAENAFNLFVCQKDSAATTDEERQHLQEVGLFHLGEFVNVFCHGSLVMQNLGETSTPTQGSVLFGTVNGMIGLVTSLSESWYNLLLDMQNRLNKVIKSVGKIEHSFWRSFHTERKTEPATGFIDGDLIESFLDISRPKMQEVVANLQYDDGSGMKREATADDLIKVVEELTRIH", "experiment": "In Cell Western of IKZF1 protein expression level in MM.1S cells", "assay_type": "cell-based", "details": "IKZF1, MM.1S cells, 24 hours; for Dmax: MM1.S, read-out: Maximum degradation rate Dmax", "description": "Experimental objective: The experiment aims to assess the degradation effect of the test compounds on IKZF1 and 1KZF3 proteins in MM.1S cells by evaluating the impact of the test compounds on the expression levels of IKZF1 and IZKZF3 proteins in MM.1S cells.\n• Cell lines: MMN.1 S cell (sourced from ATCC; Cat. No CRL-2974) • Negative control: 0.100 DMSO.\n• 1) Log phase MM.1 S cells were plated in a 96-well plate at 1.2×10^5 cells per well and cultured overnight; • 2) The next day, compounds were added with a starting concentration of 300 nM, diluted threefold across three replicate wells for 10 concentration gradients (including DMSO), and the cells were incubated for 24 hours in an incubator; • 3) The cells were centrifuged, and the supernatant was carefully removed. 150 μL of 4% paraformaldehyde fixative was added along the wall of the wells, avoiding contact with the bottom cells, and the cells were incubated at room temperature for 20 minutes; • 4) Lysis buffer was prepared by mixing 0.5 mL of 10% Triton X-100 with 49.5 mL of PBS until homogenous; • 5) 200 μL of lysis buffer was added along the well walls, again avoiding the bottom cells, and incubated on a shaker at room temperature for 5 minutes; • 6) The wells were washed four times; • 7) 150 μL of Licor […] Blocking Buffer was added along the well walls, avoiding the bottom cells, and the cells were incubated on a shaker at room temperature for 1.5 hours; • 8) Ikaros (D6N9Y) Rabbit mAb, Aiolos (D1C1E) Rabbit mAb and GAPDH mouse mAb (proteintech, 60004-1-Ig) were diluted at a 1:100 ratio using antibody dilution buffer; • 9) 50 μL of mixed antibody was added to each well with three replicate wells, and the cells were incubated overnight on a shaker at 4° C.; • 10) PBST (PBS with 0.1% Tween 20) was prepared; • 11) The primary antibodies were removed, and 200 μL of PBST was added along the well walls, avoiding the bottom cells, and the cells were incubated on a shaker at room temperature for 5 minutes; • 12) The wells were washed four times; • 13) Secondary antibody dilution buffer was prepared by adding Tween 20 to Licor […] Blocking Buffer to a final concentration of 0.2%; • 14) Fluorescent secondary antibodies were diluted in the dark at a 1:800 ratio. To 400 μL of secondary antibody dilution solution, 0.5 μL of each IRDye 800CW and IRDye 680CW (corresponding to the primary antibodies) was added. • 15) 50 μL of the diluted fluorescent secondary antibodies was added to each well and the cells were incubated on a shaker at room temperature in the dark for 60 minutes; • 16) The secondary antibodies were removed, and 200 μL of PBST was added along the well walls, avoiding the bottom cells, and the cells were incubated on a shaker at room temperature in the dark for 5 minutes; • 17) The wells were washed four times; immediately after washing, the Odyssey Gel Imaging System was used for detection at dual wavelengths of 700 nm and 800 nm.\nUsing GraphPad Prism 6 software, inhibition rate data was entered to fit the curve and calculate the DC50 value."}, "OCI-LY10": {"test_system": "OCI-LY10", "experiment": "Antiproliferative effect in lymphoma cell line OCI-LY10 (CellTiter-Glo)", "assay_type": "cell-based, human", "details": "OCI-LY10, 5 days; for pIC50: Homo sapiens, 120 h", "description": "Experimental purpose: The experiment aims to evaluate the inhibitory effects of the test compounds on cell proliferation in the diffuse large B-cell lymphoma (DLBCL) cell lines OCI-LY10 and TMD-8.\nThe tumor cell lines were cultured in a 37° C., 5% CO2 incubator under the above culture conditions. Regular passage, and cells in logarithmic growth phase were taken for plating.\n• (1) Cells were stained with trypan blue and viable cells were counted. • (2) The cell concentration was adjusted to an appropriate concentration.\n• (3) 100 μL of cell suspension per well was added to the culture plate as shown above. • (4) The culture plate was cultured overnight in a 37° C., 5% CO2 incubator with 100% relative humidity.\nPreparation of stock solution storage plate with 1000 times the initial concentration of the compound: The compound was serially diluted with DMSO from the highest concentration to the lowest concentration. The solution was prepared as needed each time.\n4. Preparation of 1000× Compound Working Solution and Cell Treatment with Compounds • (1) Preparation of the working solution with 5 times the initial concentration of the compound: For 3-fold dilution of the compound, 30 μL of the compound from a stock solution at 1000-fold concentration was taken, and 20 μL of DMSO was added to the subsequent wells. Then, 10 μL was transferred from one concentration to the next in sequence. For 5-fold dilution of the compound, 30 μL of the compound from a stock solution at 1000-fold concentration was taken, and 24 μL of DMSO was added to the subsequent wells. Then, 6 μL was transferred from one concentration to the next in sequence. 20 μL of DMSO was added to the vehicle control. The 1000-fold concentrated compound was diluted 200 times with culture medium, i.e., 1 μL of the 1000-fold diluted compound is added to 199 μL of culture medium, and the mixture was homogenized using a pipette. • (2) Compound addition: 25 μL of the 5-fold compound solution was added to the cell culture plate. • (3) The 96-well cell plate was returned to the incubator to culture OCI-LY10 (with either 3-fold or 5-fold dilution, incubated with compounds added for 5 days) and TMD-8 (with either 3-fold or 5-fold dilution, incubated with compounds added for 5 days).\nThe following steps were performed according to the instructions of Promega CellTiter-Glo luminescent cell viability assay kit (Promega-G7573). • (1) CellTiter-Glo buffer was melted and brought to room temperature. • (2) CellTiter-Glo substrate was brought to room temperature. • (3) CellTiter-Glo working solution was prepared by adding 10 mL of CellTiter-Glo buffer to a vial of CellTiter-Glo substrate to dissolve the substrate. • (4) The mixture was slowly vortexed and shaken to be fully dissolved. • (5) The cell culture plate was taken out and left for 30 minutes to equilibrate to room temperature. • (6) 60 μL of CellTiter-Go working solution was added per well (equal to half the volume of cell culture medium per well). The cell plate was wrapped in aluminum foil to be protected from light. • (7) The culture plate was shaken on an orbital shaker for 2 minutes to induce cell lysis. • (8) The culture plate was left at room temperature for 10 minutes to stabilize the luminescent signal. • (9) The luminescent signal was detected on a 2104 EnVision plate reader.\nThe inhibition rate (IIR) of the test compound was calculated using the following formula: IR (%)=(1−RLU compound/RLU vehicle control)*100%. The inhibition rates of compounds at different concentrations were calculated in Excel, and then GraphPad Prism software was used to plot inhibition curves and calculate relevant parameters, including minimum inhibition rate, maximum inhibition rate, and IC50."}}, "note": "pIC50: −log10 of the molar value. Structures can show the parent of a compound that is named as a salt."}
{"smiles": "CC(C)(O)c1cc2nc(C3CCC(CN4CCN(CC(=O)Nc5cccc6c5ccc5onc(C7CCC(=O)NC7=O)c56)CC4)CC3)sc2cc1NC(=O)c1cccc(C(F)(F)F)n1", "note": "(centres unmarked) [Formate of WX017]", "values": [{"measurement": "DC50", "setting": "IKZF1", "result": 15.7, "unit": "nM"}, {"measurement": "Dmax", "setting": "IKZF1", "result": 62.9, "unit": "%"}]}
{"smiles": "CC(C)(O)c1cc2nc([C@H]3CC[C@H](CN4CCN(CC(=O)Nc5ccc6c(ccc7onc(C8CCC(=O)NC8=O)c76)c5)CC4)CC3)sc2cc1NC(=O)c1cccc(C(F)(F)F)n1", "note": "(some centres unmarked) [Formate of WX020]", "values": [{"measurement": "pIC50", "setting": "OCI-LY10", "result": 7.60}, {"measurement": "Maximum inhibition rate", "setting": "OCI-LY10", "result": 94.96, "unit": "%"}, {"measurement": "DC50", "setting": "IKZF1", "result": 3.77, "unit": "nM"}, {"measurement": "Dmax", "setting": "IKZF1", "result": 85.2, "unit": "%"}]}
{"smiles": "CC(C)(O)c1cc2nc([C@H]3CC[C@H](CN4CCN(CC(=O)Nc5ccc6c(C7CCC(=O)NC7=O)noc6c5)CC4)CC3)sc2cc1NC(=O)c1cccc(C(F)(F)F)n1", "note": "(some centres unmarked) [Formate of WX026]", "values": [{"measurement": "DC50", "setting": "IKZF1", "result": 5.64, "unit": "nM"}, {"measurement": "Dmax", "setting": "IKZF1", "result": 84.4, "unit": "%"}]}
{"smiles": "O=C1CCC(c2coc3cc(NC(=O)CN4CCN(C[C@H]5CC[C@H](N6CC(NC(=O)c7coc(-c8ccnc(NCC9CC9)c8)n7)C(C(F)F)N6)CC5)CC4)ccc23)C(=O)N1", "note": "(some centres unmarked) [Hydrochloride of WX002]", "values": [{"measurement": "pIC50", "setting": "OCI-LY10", "result": 6.72}, {"measurement": "Maximum inhibition rate", "setting": "OCI-LY10", "result": 63.27, "unit": "%"}]}
{"smiles": "O=C1CCC(c2noc3ccc4c(NC(=O)CN5CCN(C[C@H]6CC[C@H](n7cc(NC(=O)c8coc(-c9ccnc(NCC%10CC%10)c9)n8)c(C(F)F)n7)CC6)CC5)cccc4c23)C(=O)N1", "note": "(some centres unmarked) [Hydrochloride of WX014]", "values": [{"measurement": "pIC50", "setting": "OCI-LY10", "result": 7.86}, {"measurement": "Maximum inhibition rate", "setting": "OCI-LY10", "result": 94.54, "unit": "%"}]}
{"smiles": "O=C1CCC(c2noc3ccc4c(NC(=O)C(F)(F)C5CCN(CC6CCC(n7cc(NC(=O)c8coc(-c9ccnc(NCC%10CC%10)c9)n8)c(C(F)F)n7)CC6)CC5)cccc4c23)C(=O)N1", "note": "(centres unmarked) [Hydrochloride of WX018]", "values": [{"measurement": "pIC50", "setting": "OCI-LY10", "result": 8.16}, {"measurement": "Maximum inhibition rate", "setting": "OCI-LY10", "result": 99.92, "unit": "%"}, {"measurement": "DC50", "setting": "IKZF1", "result": 14.5, "unit": "nM"}, {"measurement": "Dmax", "setting": "IKZF1", "result": 88.8, "unit": "%"}]}
{"smiles": "O=C1CCC(c2noc3cc(NC(=O)CN4CCN(C[C@H]5CC[C@H](n6cc(NC(=O)c7coc(-c8ccnc(NCC9CC9)c8)n7)c(C(F)F)n6)CC5)CC4)ccc23)C(=O)N1", "note": "(some centres unmarked) [Hydrochloride of WX025]", "values": [{"measurement": "pIC50", "setting": "OCI-LY10", "result": 7.61}, {"measurement": "Maximum inhibition rate", "setting": "OCI-LY10", "result": 97.39, "unit": "%"}, {"measurement": "DC50", "setting": "IKZF1", "result": 14.4, "unit": "nM"}, {"measurement": "Dmax", "setting": "IKZF1", "result": 72.2, "unit": "%"}]}
{"smiles": "O=C1CCC(c2noc3c(NC(=O)CN4CCN(C[C@H]5CC[C@H](n6cc(NC(=O)c7coc(-c8ccnc(NCC9CC9)c8)n7)c(C(F)F)n6)CC5)CC4)cccc23)C(=O)N1", "note": "(some centres unmarked) [Hydrochloride of WX028]", "values": [{"measurement": "pIC50", "setting": "OCI-LY10", "result": 7.07}, {"measurement": "Maximum inhibition rate", "setting": "OCI-LY10", "result": 99.01, "unit": "%"}, {"measurement": "DC50", "setting": "IKZF1", "result": 26.7, "unit": "nM"}, {"measurement": "Dmax", "setting": "IKZF1", "result": 49.7, "unit": "%"}]}
{"smiles": "O=C1CCC(c2coc3ccc4c(NC(=O)CN5CCN(C[C@H]6CC[C@H](n7cc(NC(=O)c8coc(-c9ccnc(NCC%10CC%10)c9)n8)c(C(F)F)n7)CC6)CC5)cccc4c23)C(=O)N1", "note": "(some centres unmarked) [Trifluoroacetate of WX011]", "values": [{"measurement": "pIC50", "setting": "OCI-LY10", "result": 7.77}, {"measurement": "Maximum inhibition rate", "setting": "OCI-LY10", "result": 93.42, "unit": "%"}]}
